Results on 2 compounds are retold here after patent US8399033B2, “Anti-bacterial composition comprising extract from barks of Alnus pendula Matsum” (Chung-Ang University Industry Academic Cooperation …, priority 2009, dated 2013).

By IC50 is commonly meant the concentration needed to halve the response being measured. A lower IC50 goes with greater potency in that assay.

In brackets after ≈: the same amount, converted by molar mass.

Test [1] can be described thus: DPPH free radical scavenging activity. Type of test: biochemical. To be noted: 0.1 mM DPPH, 30 min at 37° C., absorbance 492 nm; for IC50: compounds. The protocol:
Each sample (10 μL) was incubated with 0.1 mM DPPH solution (180 μL, in 99.5% ethanol), and vigorously agitated for 10 sec using a vortex mixer, followed by incubation for 30 min at 37° C. Afterwards, the absorbance was measured at 492 nm using an ELISA reader (TECAN, Sazburg, Austria). L-ascorbic acid as positive control drug was prepared and measured according to the method as described above. To determine anti-oxidative activity of each sample, anti-oxidative potential was represented as reducing power by EDA % (Electron donating ability) for DPPH. […] DPPH method is a representative measuring anti-oxidative activity (81). DPPH contains stable radical in normal condition, but its radical was removed where it contacts with a substance having anti-oxidative activity. Therefore, anti-oxidative effects could be assessed by measuring the absorbance changes of DPPH. In this regard, DPPH as a relatively stable free radical in dark-purple state was reduced by amino acids containing sulfur atom such as cystin and glutathione, L-ascorbic acid, BHA or BHT. These color changes have been used to isolate an anti-oxidative substance from a variety of natural materials (82).
(DPPH is a stable violet radical that fades when it is reduced.)

Another test has as its system DPS-2 (MRSA). Put plainly: MIC by liquid media dilution assay. It counts as cell-based. The following applies: Staphylococcus aureus; DPS-2 (MRSA) clinical isolate; 24 hrs at 37° C., naked-eye observation; read-out: MIC (minimum inhibitory concentration). The protocol:
(§1) S.aureus MSSA ATCC 25923 and MRSA 33591 standard strains were purchased from Korean Culture Center of Microorganisms (KCCM), and two S. aureus clinical isolates were obtained from subjects of WonKwang University Hospital (Iksan, Jeonbuk, South Korea). Mueller Hinton Agar (MHA, Difco, USA) or Mueller Hinton Broth (MHB, Difco, USA) was used as subculture media.
(§2) Minimum Inhibitory Concentration (MIC) was carried out according to the standard of Clinical and Laboratory Standards Institute (CLSI). One strain of MRSA (Methicillin resistant staphylococcus aureus), one strain of MSSA (Methicillin susceptible staphylococcus aureus, MSSA), and two strains of MRSAs as clinical isolates obtained from plastic surgery subjects of WonKwang University Hospital, were suspended in Muller-Hinton Broth. Thereafter, the bacterial solutions were adjusted to the turbidity of 0.5 Mcfarland standard. The bacteria were prepared at a concentration of about 1×10^8 CFU/ml, followed by performing anti-bacterial experiment using a liquid media dilution assay.
(§3) The extract from a bark of Alnus pendula was serially diluted from minimal concentration (0.97 μg/ml) to maximal concentration (2 mg/ml) using DMSO (Dimethylsulfoxide) as a solvent, and then were seeded into each well of 96-well plate with a volume of 10 μl/well, followed by adding 100 μl bacterial solution and 90 μl media. After culturing the mixture for 24 hrs at 37° C. in incubator, MIC was defined as minimal concentration in which the growth of bacteria is inhibited in a naked-eye observation.

Another test has as its system DPS-1 (MRSA). Put plainly: MIC by liquid media dilution assay. Type of test: cell-based. To be noted: Staphylococcus aureus; DPS-1 (MRSA) clinical isolate; 24 hrs at 37° C., naked-eye observation; read-out: MIC (minimum inhibitory concentration). The protocol:
as §1, §2, §3

The subject of test [2] is S. aureus ATCC 33591 (MRSA). The test is described as follows: MIC by liquid media dilution assay. It counts as cell-based. To be noted: Staphylococcus aureus, 24 hrs at 37° C., naked-eye observation, read-out: MIC (minimum inhibitory concentration). The protocol:
as §1, §2, §3

Test [3] has as its system S. aureus ATCC 25923 (MSSA). Put plainly: MIC by liquid media dilution assay. It counts as cell-based. The following applies: Staphylococcus aureus, 24 hrs at 37° C., naked-eye observation, read-out: MIC (minimum inhibitory concentration). The protocol:
as §1, §2, §3

In the case of `O=C1O[C@H]([C@@H](O)CO)C(O)=C1O` [Vit. C, L-ascorbic acid], the half-maximal inhibitory concentration (IC50) in test [1] worked out at 16.4 ± 0.21 µM. In test [1] (extract and fractions), the “IC50 value DPPH radical scavenging activity” value came out at 5.29 ± 0.05 mg/L (≈ 30 µM).

On to `O=C(/C=C/CCc1ccc(O)c(O)c1)CCc1ccc(O)c(O)c1` [compound 2, 1,7-bis-(3,4-dihydroxyphenyl)-4-heptene-3-one], for which the MIC in the test with DPS-2 (MRSA) worked out at 62.5 mg/L (≈ 190 µM); in the test on DPS-1 (MRSA), 125 mg/L (≈ 381 µM); in test [2], 62.5 mg/L (≈ 190 µM); in test [3] it was 62.5 mg/L (≈ 190 µM). The same compound had a 50% inhibitory concentration (IC50) in test [1] of 22.5 ± 0.71 µM.
